These results are taken from patent US20230381146A1, “SUBSTITUTED HETEROARYL COMPOUNDS AND USE THEREOF” (HELIOS HUAMING BIOPHARMA CO., LTD., priority 2020, published 2023).

In this assay the target is PAD4 (Homo sapiens, UniProt Q9UM07). The assay can be described thus: PAD4 Inhibition Assay (citrulline formation from BAEE substrate). To be noted: PAD4 75 nM, 60 minute preincubation at 37° C., 90 minutes. In kind it is biochemical. How it is done: PAD4 was diluted to 75 nM in Assay Buffer (50 mM Tris-HCl, 2 mM CaCl2), 2 mM DTT, 1 mM PMSF in H2O) and added to wells with various concentrations of compound or DMSO vehicle in Eppendorf tubes (final volume was 100 μL). Following a 60 minute preincubation at 37° C., the reaction was initiated by the addition of 10 μL substrate (22 mM BAEE in H2O) at 37° C. The reaction was stopped after 90 minutes by the addition of 25 μL HClO4 (5 M), 125 μL Reagent A (10 g/L diacetyl monoxime and 15 g/L NaCl in H2O) and 250 μL Reagent B (10 mg/mL antipyrine and 1.0 mg/mL FeCl3 diluted in detection buffer containing 25% H2SO4, 25% H3PO4 and 50% H2O) in sequence. This assay was quenched in an ice-bath for 5 minutes after boiling for 30 minutes. The citrulline formation was measured in fluorescence (κ=465 nm) on microplate reader and the IC50 was calculated by GraphPad Prism.
PAD4, sequence (Q9UM07 whole entry): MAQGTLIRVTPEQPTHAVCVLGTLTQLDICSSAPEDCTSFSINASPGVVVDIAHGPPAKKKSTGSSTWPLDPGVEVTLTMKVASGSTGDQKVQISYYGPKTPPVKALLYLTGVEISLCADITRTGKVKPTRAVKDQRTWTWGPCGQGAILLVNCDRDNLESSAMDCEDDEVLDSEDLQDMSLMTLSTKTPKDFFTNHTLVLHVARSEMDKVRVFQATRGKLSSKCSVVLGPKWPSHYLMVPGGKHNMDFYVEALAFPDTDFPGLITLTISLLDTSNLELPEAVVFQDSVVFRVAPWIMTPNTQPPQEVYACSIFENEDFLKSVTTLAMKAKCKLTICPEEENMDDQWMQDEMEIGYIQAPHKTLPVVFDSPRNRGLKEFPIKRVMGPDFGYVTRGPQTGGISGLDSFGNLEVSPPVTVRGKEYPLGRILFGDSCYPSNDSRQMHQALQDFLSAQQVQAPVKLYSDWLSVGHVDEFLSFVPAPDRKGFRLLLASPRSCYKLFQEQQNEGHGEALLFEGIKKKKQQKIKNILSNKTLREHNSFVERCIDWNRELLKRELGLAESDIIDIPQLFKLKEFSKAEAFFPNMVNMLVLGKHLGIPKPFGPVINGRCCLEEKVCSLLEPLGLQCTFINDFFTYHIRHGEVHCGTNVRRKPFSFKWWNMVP
As to `N=C(CF)NCCC[C@H](NC(=O)c1c(F)cccc1Cl)c1ncc(-c2cccc(Cl)c2)o1` [EX-35, (S)-2-Chloro-N-(1-(5-(3-chlorophenyl)oxazol-2-yl)-4-(2-fluoroacetimidamido)butyl)-6-fluorobenzamide], the IC50 was in the range of 200 to 500 nM.
The molecule `COc1cc2ccccc2cc1C(=O)N[C@@H](CCCNC(=N)CF)c1ncc(-c2ccccc2)o1` [EX-36, (S)—N-(4-(2-fluoroacetimidamido)-1-(5-phenyloxazol-2-yl)butyl)-3-methoxy-2-naphthamide] had an IC50 of less than 200 nM.
For `COc1ccccc1C(=O)N[C@@H](CCCNC(=N)CF)c1ncc(-c2ccccc2)[nH]1` [EX-37, (S)—N-(4-(2-fluoroacetimidamido)-1-(5-phenyl-1H-imidazol-2-yl)butyl)-2-methoxybenzamide] the value was more than 500 nM; for `COc1ccc(-c2ccccc2)cc1C(=O)N[C@@H](CCCNC(=N)CF)c1ncc(-c2ccccc2)o1` [EX-38, (S)—N-(4-(2-fluoroacetimidamido)-1-(5-phenyloxazol-2-yl)butyl)-4-methoxy-[1,1′-biphenyl]-3-carboxamide], 200 to 500 nM; for `COc1cccc(OC)c1C(=O)N[C@@H](CCCNC(=N)CF)c1nnc(-c2ccc(Cl)cc2)o1` [EX-39, (S)—N-(1-(5-(4-Chlorophenyl)-1,3,4-oxadiazol-2-yl)-4-(2-fluoroacetimidamido)butyl)-2,6-dimethoxybenzamide], more than 500 nM.
To `COc1cccc(OC)c1C(=O)N[C@@H](CCCNC(=N)CF)c1nc(-c2ccc(Cl)cc2)no1` [EX-40] belongs more than 500 nM; to `COc1cccc(Cl)c1C(=O)N[C@@H](CCCNC(=N)CF)c1ncc(-c2cccc(NC(=O)CCCNC(=O)CCCC[C@@H]3SC[C@@H]4NC(=O)N[C@@H]43)c2)o1` [EX-41, 2-Chloro-N—((S)-4-(2-fluoroacetimidamido)-1-(5-(3-(4-(5-((3aS,4S,6aR)-2-oxohexahydro-1H-thieno[3,4-d]imidazol-4-yl)pentanamido)butanamido)phenyl)oxazol-2-yl)butyl)-6-methoxybenzamide], 200 to 500 nM; to `COc1ccc(OCCCNC(=O)CCCC(=O)NCCCOCCOCCOCCCNC(=O)CCCC[C@@H]2SC[C@@H]3NC(=O)N[C@@H]32)cc1C(=O)N[C@@H](CCCNC(=N)CF)c1ncc(-c2cccc(Cl)c2)o1` [EX-42, N^1-(3-(3-(((S)-1-(5-(3-Chlorophenyl)oxazol-2-yl)-4-(2-fluoroacetimidamido)butyl)carbamoyl)-4-methoxyphenoxy)propyl)-N^5-(15-oxo-19-((3aS,4S,6aR)-2-oxohexahydro-1H-thieno[3,4-d]imidazol-4-yl)-4,7,10-trioxa-14-azanonadecyl)glutaramide], more than 500 nM.

In general, IC50 refers to the midpoint of a concentration-inhibition curve. A high value points to a need for much substance.
